# Columns and labels:
# [1] = tested on: 8-year old young Cryptomeria japonica trees; experiment: Foliar spray of prohexadione compound on branches of 8-year old young Cryptomeria japonica trees (Example 1); type: in vivo; conditions: 8-year old trees; for Branches Elongation: control group 24.6 ± 6.4; for Number of male flower clusters: 100 ml foliar spray, control group 136.9 ± 21.6
# Procedure: Two 8-year old young Cryptomeria japonica trees (height: 8 m, diameter at breast height: 6 cm) which were in a nursery of an experimental plantation of the department of agriculture of Tottori University and which had formed male flowers every year were used. Three branches were selected at male flower-forming positions of each tree. These branches which were supposed to form the male flowers were treated with the prohexadione compound ([…]) on Jun. 5, 2001 (about one month before the beginning of July when Cryptomeria japonica flower buds were supposed to differentiate and Cryptomeria japonica flower buds were supposed to be formed). In this test, the prohexadione compound was diluted to a concentration shown in Table 3 given below with 60% (v/v) aqueous acetone solution.
# The treatment method was as follows: 100 ml of the diluted solution obtained as described above was sprayed on leaves of the branches (50 cm long area from the branch top) with a hand sprayer In a control group, the leaves were treated with only 60% (v/v) aqueous acetone solution.
# The concentrations of the prohexadione compound used for the foliar spray treatment were as follows: • Concentration (ppm) • 0.5 • 5 • 50 • 500
# [2] = tested on: 43-year old Cryptomeria japonica trees; experiment: Aerial (helicopter curtain) application of the agent to a forest of 43-year old Cryptomeria japonica trees (Example 2); type: in vivo; conditions: 43-year old trees; for Number of male flower clusters: Table 6 composition (polyoxyethylene castor oil, tetrahydrofurfuryl alcohol, water), 1.8 liters per 10 a by helicopter, control group 2985.8 ± 789.1; for Shoot Elongation: Table 6 composition, control group 80.8 ± 9.4
# Procedure: A Cryptomeria japonica forest having 43-year old Cryptomeria japonica trees (height: 16 m, diameter at breast height: 35 cm) was treated in Nirayama experimental plantation of the department of agriculture of Tottori University on Jun. 25, 2001.
# The concentration of the agent for inhibiting the formation of Cryptomeria japonica pollen thus sprayed was 50 or 500 ppm.
# 1.8 liters of each of the above described two compositions was applied to the forest having an area of 10 a by the curtain application method with a helicopter. The aerial application was conducted twice, using 0.9 liter of the composition each time. In a control group, only water free from the active ingredients was used for the aerial application.
smiles,measurement,setting,value
CCOC(=O)C1CC(=O)C(=C(O)C2CC2)C(=O)C1 (stereo not shown),Branches Elongation,[1]; 0.5 ppm foliar spray,25.5 ± 7.2 cm
same,Number of male flower clusters,[1]; 0.5 ppm in 60% aqueous acetone,111.6 ± 25.2
same,Elongation growth of the Cryptomeria japonica branches versus control group (in words),[1]; 0.5 to 500 ppm,substantially unchanged
same,Branches Elongation,[1]; 5 ppm foliar spray,26.2 ± 6.5 cm
same,Number of male flower clusters,[1]; 5 ppm in 60% aqueous acetone,70.4 ± 12.4
same,Branches Elongation,[1]; 50 ppm foliar spray,24.3 ± 6.3 cm
same,Number of male flower clusters,[1]; 50 ppm in 60% aqueous acetone,21.2 ± 6.5
same,Effect of inhibiting the differentiation and formation of male Cryptomeria japonica flowers (in words),[1]; 50 ppm or 500 ppm,remarkable
same,Branches Elongation,[1]; 500 ppm foliar spray,25.2 ± 5.5 cm
same,Number of male flower clusters,[1]; 500 ppm in 60% aqueous acetone,10.8 ± 6.1
same,Elongation growth of the Cryptomeria japonica trees versus control group (in words),"[2]; 50 or 500 ppm, aerial application",substantially the same as that in the control group
same,Effect of inhibiting the differentiation and formation of the male flowers (in words),"[2]; 50 ppm or 500 ppm, aerial application",remarkable effect
same,Number of male flower clusters,[2]; 50 ppm,751.3 ± 121.5
same,Shoot Elongation,"[2]; 50 ppm, aerial application",83.3 ± 10.7 cm
same,Number of male flower clusters,[2]; 500 ppm,124.2 ± 55.2
same,Shoot Elongation,"[2]; 500 ppm, aerial application",82.8 ± 11.2 cm

# Source: US20080153705A1, “METHOD FOR INHIBITING DIFFERENTITATION AND FORMATION OF CONIFEROPHYTA MALE FLOWERS BY TREATMENT WITH PROHEXADIONE COMPOUNDS” (Syngenta Crop Protection, Inc., priority 2002, published 2008)
